The subject of experiment [1] is primary human T-cells. In words: Proliferation assay (5 days, CellTiter-Glo, CD3-stimulated T-cells). Format: cell-based. The conditions noted are these: for Emax proliferation (% activation): CD3 condition, normalised to DMSO (neutral) and 20 μM reference compound A1 = 100%; for EC50: Homo sapiens, T-cell, 120 h, CD3-stimulated primary human T-cells, 5 days, CellTiter-Glo, fitted sigmoidal curve, read-out: Tcell Proliferation CD3 EC50. The method in brief: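 Expanded primary human T-cells, 100 k cells/well, were stimulated with plate-coated CD3 antibody (donor-titrated) and given compound in a 5 or 6 pt dose response from 20 μM or 10 μM final top, 0.2% DMSO final. ATP was read by CellTiter-Glo after 5 days. EC50 and Emax were reported as % of 20 μM reference compound A1.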

In experiment [2] the test system is primary human T-cells. Description: IL2 secretion measurements (24 h, CD3-stimulated T-cells, PBS counter screen). Format: cell-based. As to conditions: for Emax IL2 (% activation): CD3 condition, normalised to DMSO (neutral) and 20 μM reference compound A1 = 100%; for EC50: Homo sapiens, T-cell, CD3-stimulated primary human T-cells, IL2 secretion, fitted sigmoidal curve, read-out: Tcell IL2 CD3 EC50. The method in brief: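 Expanded primary human T-cells (100k/well) were plated on anti-CD3-coated or PBS-only plates with compound in a 5–6 point dose response (top 20 or 10 μM final, 3.333-fold, 0.2% DMSO). IL-2 in 24 h supernatants was quantified by ProQuantum immunoassay or ELISA. Values were normalized to DMSO and 20 μM reference compound A1 (100%), giving EC50 and Emax.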

A value given as a limit tells only on which side of the number the result lay.

Take `N#CC1(c2nc(-c3cc4c(cc3F)S(=O)(=O)C[C@H](N)C(=O)N4Cc3ccc(-c4ccc(C(F)(F)F)cn4)cc3)no2)CC1` [Example 17]: in the experiment with primary human T-cells [1], the “Emax proliferation (% activation)” value turned out to be 167 % activation and the EC50 came out at 50.1 nM. Moreover, in the experiment on primary human T-cells [2], the “Emax IL2 (% activation)” value was 221 % activation and the EC50 is 1540 nM.

Take `N[C@H]1CS(=O)(=O)c2cc(F)c(-c3noc(C4(CO)CCCO4)n3)cc2N(Cc2ccc(-c3noc(C(F)(F)F)n3)cc2)C1=O` (stereo partly drawn) [Example 18, (3R)-3-amino-8-fluoro-7-[5-[2-(hydroxymethyl)tetrahydrofuran-2-yl]-1,2,4-oxadiazol-3-yl]-1,1-dioxo-5-[[4-[5-(trifluoromethyl)-1,2,4-oxadiazol-3-yl]phenyl]methyl]-2,3-dihydro-1λ^6,5-benzothiazepin-4-one]: in the experiment with primary human T-cells [1], the “Emax proliferation (% activation)” value is recorded as 275 % activation and the EC50 is 445 nM. In the experiment with primary human T-cells [2], the “Emax IL2 (% activation)” value amounted to 529 % activation and the EC50 was 849 nM.

With `CC(C)(C)c1nnc(-c2ccc(CN3C(=O)[C@@H](N)CS(=O)(=O)c4ccc(-c5nnc(C(C)(C)C)o5)cc43)cc2)o1` [Example 19, (3R)-3-amino-7-(5-tert-butyl-1,3,4-oxadiazol-2-yl)-5-[[4-(5-tert-butyl-1,3,4-oxadiazol-2-yl)phenyl]methyl]-1,1-dioxo-2,3-dihydro-1λ^6,5-benzothiazepin-4-one], in the experiment with primary human T-cells [1], the “Emax proliferation (% activation)” value came to 100 % activation and the EC50 worked out at 3610 nM. In the experiment with primary human T-cells [2], the “Emax IL2 (% activation)” value is on record as 40 % activation and the EC50 is more than 10000 nM.

Turning to `Cc1cc(C)n(-c2ccc(CN3C(=O)[C@@H](N)CS(=O)(=O)c4ccc(-c5nnc(C(C)(C)C)o5)cc43)cc2)n1` [Example 22, (3R)-3-amino-7-(5-tert-butyl-1,3,4-oxadiazol-2-yl)-5-[[4-(3,5-dimethylpyrazol-1-yl)phenyl]methyl]-1,1-dioxo-2,3-dihydro-1λ^6,5-benzothiazepin-4-one], in the experiment on primary human T-cells [1], the “Emax proliferation (% activation)” value is listed as 69 % activation and the EC50 is 3930 nM. For the same compound, in the experiment with primary human T-cells [2], the “Emax IL2 (% activation)” value amounted to 75 % activation and the EC50 worked out at 4580 nM.

Regarding `CC(C)(C)c1nnc(-c2ccc3c(c2)N(Cc2ccc(-c4nnc(C(F)(F)F)o4)cc2)C(=O)[C@@H](N)CS3(=O)=O)o1` [Example 24, (3R)-3-amino-7-(5-tert-butyl-1,3,4-oxadiazol-2-yl)-1,1-dioxo-5-[[4-[5-(trifluoromethyl)-1,3,4-oxadiazol-2-yl]phenyl]methyl]-2,3-dihydro-1λ^6,5-benzothiazepin-4-one], in the experiment with primary human T-cells [1], the “Emax proliferation (% activation)” value came out at 142 % activation and the EC50 stood at 775 nM. In the experiment with primary human T-cells [2], the “Emax IL2 (% activation)” value turned out to be 131 % activation and the EC50 was 1060 nM.

Take `CC(N)(c1nnc(-c2ccc3c(c2)N(Cc2ccc(-c4noc(C(F)(F)F)n4)cc2)C(=O)[C@@H](N)CS3(=O)=O)o1)C(F)(F)F` (stereo partly drawn) [Example 32, (3R)-3-amino-7-[5-(1-amino-2,2,2-trifluoro-1-methyl-ethyl)-1,3,4-oxadiazol-2-yl]-1,1-dioxo-5-[[4-[5-(trifluoromethyl)-1,2,4-oxadiazol-3-yl]phenyl]methyl]-2,3-dihydro-1λ^6,5-benzothiazepin-4-one]: in the experiment on primary human T-cells [1], the “Emax proliferation (% activation)” value turned out to be 153 % activation and the EC50 is 468 nM. In the experiment with primary human T-cells [2], the “Emax IL2 (% activation)” value worked out at 321 % activation and the EC50 is 1920 nM.

`CC(C)(C)C(N)c1nnc(-c2ccc3c(c2)N(Cc2ccc(-c4noc(C(F)(F)F)n4)cc2)C(=O)[C@@H](N)CS3(=O)=O)o1` (stereo partly drawn) [Example 34, (3R)-3-amino-7-[5-(1-amino-2,2-dimethyl-propyl)-1,3,4-oxadiazol-2-yl]-1,1-dioxo-5-[[4-[5-(trifluoromethyl)-1,2,4-oxadiazol-3-yl]phenyl]methyl]-2,3-dihydro-1λ^6,5-benzothiazepin-4-one]: in the experiment on primary human T-cells [1], the “Emax proliferation (% activation)” value was found to be 67 % activation and the EC50 was determined as 1180 nM. For the same compound, in the experiment on primary human T-cells [2], the “Emax IL2 (% activation)” value turned out to be 69 % activation and the EC50 worked out at 4900 nM.

Take `CC(C#N)c1nnc(-c2ccc3c(c2)N(Cc2ccc(-c4noc(C(F)(F)F)n4)cc2)C(=O)[C@@H](N)CS3(=O)=O)o1` (stereo partly drawn) [Example 35, 2-[5-[(3R)-3-amino-1,1,4-trioxo-5-[[4-[5-(trifluoromethyl)-1,2,4-oxadiazol-3-yl]phenyl]methyl]-2,3-dihydro-1λ^6,5-benzothiazepin-7-yl]-1,3,4-oxadiazol-2-yl]propanenitrile]: in the experiment with primary human T-cells [1], the “Emax proliferation (% activation)” value is recorded as 99 % activation and the EC50 amounted to 2490 nM. In the experiment with primary human T-cells [2], the “Emax IL2 (% activation)” value turned out to be 193 % activation and the EC50 amounted to 2150 nM.

With `N[C@H]1CS(=O)(=O)c2ccc(-c3nnc(C4(C5CC5)CCCO4)o3)cc2N(Cc2ccc(-c3noc(C(F)(F)F)n3)cc2)C1=O` (stereo partly drawn) [Example 36, (3R)-3-amino-7-[5-(2-cyclopropyl-tetrahydrofuran-2-yl)-1,3,4-oxadiazol-2-yl]-1,1-dioxo-5-[[4-[5-(trifluoromethyl)-1,2,4-oxadiazol-3-yl]phenyl]methyl]-2,3-dihydro-1λ^6,5-benzothiazepin-4-one], in the experiment on primary human T-cells [1], the “Emax proliferation (% activation)” value stood at 108 % activation and the EC50 turned out to be 91.7 nM. Also, in the experiment with primary human T-cells [2], the “Emax IL2 (% activation)” value was 223 % activation and the EC50 was 616 nM.

For `COC(F)(c1nnc(-c2ccc3c(c2)N(Cc2ccc(-c4noc(C(F)(F)F)n4)cc2)C(=O)[C@@H](N)CS3(=O)=O)o1)C(F)(F)F` (stereo partly drawn) [Example 37, (3R)-3-amino-1,1-dioxo-7-[5-(1,2,2,2-tetrafluoro-1-methoxy-ethyl)-1,3,4-oxadiazol-2-yl]-5-[[4-[5-(trifluoromethyl)-1,2,4-oxadiazol-3-yl]phenyl]methyl]-2,3-dihydro-1λ^6,5-benzothiazepin-4-one], in the experiment on primary human T-cells [1], the “Emax proliferation (% activation)” value is recorded as 173 % activation and the EC50 is 304 nM. Further, in the experiment with primary human T-cells [2], the “Emax IL2 (% activation)” value is 198 % activation and the EC50 was determined as 338 nM.

As to `CC(C)(C#N)c1nnc(-c2ccc3c(c2)N(Cc2ccc(-c4noc(C(F)(F)F)n4)cc2)C(=O)[C@@H](N)CS3(=O)=O)o1` [Example 38, 2-[5-[(3R)-3-amino-1,1,4-trioxo-5-[[4-[5-(trifluoromethyl)-1,2,4-oxadiazol-3-yl]phenyl]methyl]-2,3-dihydro-1λ^6,5-benzothiazepin-7-yl]-1,3,4-oxadiazol-2-yl]-2-methyl-propanenitrile], in the experiment with primary human T-cells [1], the “Emax proliferation (% activation)” value is listed as 97 % activation and the EC50 is 640 nM. In addition, in the experiment with primary human T-cells [2], the “Emax IL2 (% activation)” value is listed as 311 % activation and the EC50 was 3110 nM.

As to `N[C@H]1CS(=O)(=O)c2ccc(-c3nnc(C4(N)CCCCC4)o3)cc2N(Cc2ccc(-c3noc(C(F)(F)F)n3)cc2)C1=O` [Example 39, (3R)-3-amino-7-[5-(1-aminocyclohexyl)-1,3,4-oxadiazol-2-yl]-1,1-dioxo-5-[[4-[5-(trifluoromethyl)-1,2,4-oxadiazol-3-yl]phenyl]methyl]-2,3-dihydro-1λ^6,5-benzothiazepin-4-one], in the experiment with primary human T-cells [1], the “Emax proliferation (% activation)” value is listed as 91 % activation and the EC50 is 181 nM. Moreover, in the experiment on primary human T-cells [2], the “Emax IL2 (% activation)” value is 143 % activation and the EC50 was found to be 622 nM.

As to `N[C@H]1CS(=O)(=O)c2ccc(-c3nnc(C4(N)CCCCC4)o3)cc2N(Cc2ccc(-c3ccc(C(F)(F)F)cn3)cc2)C1=O` [Example 41, (3R)-3-amino-7-[5-(1-aminocyclohexyl)-1,3,4-oxadiazol-2-yl]-1,1-dioxo-5-[[4-[5-(trifluoromethyl)-2-pyridyl]phenyl]methyl]-2,3-dihydro-1λ^6,5-benzothiazepin-4-one], in the experiment with primary human T-cells [1], the “Emax proliferation (% activation)” value was determined as 85 % activation and the EC50 amounted to 902 nM. In the experiment on primary human T-cells [2], the “Emax IL2 (% activation)” value came out at 66 % activation and the EC50 turned out to be 3340 nM.

Turning to `N[C@H]1CS(=O)(=O)c2ccc(-c3nnc(C4(N)CCCCC4)o3)cc2N(Cc2ccc(-c3ccc(C(F)(F)F)cc3)cc2)C1=O` [Example 42, (3R)-3-amino-7-[5-(1-aminocyclohexyl)-1,3,4-oxadiazol-2-yl]-1,1-dioxo-5-[[4-[4-(trifluoromethyl)phenyl]phenyl]methyl]-2,3-dihydro-1λ^6,5-benzothiazepin-4-one], in the experiment on primary human T-cells [1], the “Emax proliferation (% activation)” value worked out at 66 % activation and the EC50 was found to be 123 nM. Moreover, in the experiment on primary human T-cells [2], the “Emax IL2 (% activation)” value is 128 % activation and the EC50 stood at 1390 nM.

On to `COc1ccc(-c2ccc(CN3C(=O)[C@@H](N)CS(=O)(=O)c4ccc(-c5nnc(C6(N)CCCCC6)o5)cc43)cc2)cc1` [Example 43, (3R)-3-amino-7-[5-(1-aminocyclohexyl)-1,3,4-oxadiazol-2-yl]-5-[[4-(4-methoxyphenyl)phenyl]methyl]-1,1-dioxo-2,3-dihydro-1λ^6,5-benzothiazepin-4-one], for which, in the experiment with primary human T-cells [1], the “Emax proliferation (% activation)” value worked out at 64 % activation and the EC50 came to 284 nM. In addition, in the experiment on primary human T-cells [2], the “Emax IL2 (% activation)” value came out at 89 % activation and the EC50 is 771 nM.

Turning to `COc1ccc(-c2ccc(CN3C(=O)[C@@H](N)CS(=O)(=O)c4ccc(-c5nnc(C6(F)CCCN(C)C6)o5)cc43)cc2)cc1` (stereo partly drawn) [Example 50, (3R)-3-amino-7-[5-(3-fluoro-1-methyl-3-piperidyl)-1,3,4-oxadiazol-2-yl]-5-[[4-(4-methoxyphenyl)phenyl]methyl]-1,1-dioxo-2,3-dihydro-1λ^6,5-benzothiazepin-4-one], in the experiment with primary human T-cells [1], the “Emax proliferation (% activation)” value is on record as 219 % activation and the EC50 stood at 1040 nM. Moreover, in the experiment on primary human T-cells [2], the “Emax IL2 (% activation)” value is 119 % activation and the EC50 turned out to be 3600 nM.
